Measurements reported in publication PMC11018795, “The regulatory relationship between NAMPT and PD-L1 in cancer and identification of a dual-targeting inhibitor” (EMBO Molecular Medicine, 2024).
“And” between values parts separate entries of the source, which are not always exact repeats. Equal values may be shown once. Read-outs that look alike come from different tables or passages of the source.

Assays:
[1] = system: NAD+ content of A2780 cells; assay: NAD+ assay in A2780 cells; assay type: cell-based, human
Experimental: (§1) NAD^+ assays were performed to quantify the total NAD^+ content. NAD^+ assay was performed using the NAD/NADH Assay Kit (ab65348; Abcam) according to the manufacturer’s recommended protocol.

[2] = system: IFN-γ and TNF-α secretion, LLC cells co-cultured with T cells; assay: ELISA of IFN-γ and TNF-α, LLC cells under co-culture condition; assay type: cell-based, mouse; set-up: unit not given here; conditions: in vitro
[3] = system: glycolytic genes in LLC cells; assay: RT-PCR of glycolytic genes in LLC cells with or without T cells; assay type: cell-based, mouse; set-up: key to HK2 mRNA level / Glut1 mRNA level / Aldoa mRNA level / Eno1 mRNA level: relative mRNA level normalized to GAPDH (endogenous control)
Experimental: (§2) Total RNA was isolated using TRIzol reagent (Invitrogen, 15596026) according to the manufacturer's protocol. First-strand cDNA synthesis was performed using a RevertAid First Strand cDNA Synthesis Kit (Thermo Fisher, […]). Quantitative real-time PCR analysis was performed by mixing 10 μl SYBR, 0.4 μM forward primer, 0.4 μM reverse primer, 1 μl cDNA, and 8.2 μl distilled water per sample with Top Green qPCR SuperMix (Transgene, AQ601-04) by the manufacturer's protocols. GAPDH was used as an endogenous control. All qRT-PCRs were set up in triplicate using three biological replicates for each sample. Primer information is shown in Appendix Table S1.

[4] = system: pyruvate content of LLC cells; assay: Pyruvate (PA) content in LLC cells with or without T cells; assay type: cell-based, mouse; set-up: unit not given beside the values
Excerpt: Supplement 44321_2024_51_MOESM3_ESM.zip/Fig-2-G.xlsx, sheet "Sheet1" | column: "-T cells; "+T cells

[5] = system: NAD+ content of LLC cells; assay: NAD+ content in LLC cells with or without T cells; assay type: cell-based, mouse; set-up: unit not given here
Experimental: as §1

[6] = system: glycolytic genes in A549 cells; assay: RT-PCR of glycolytic genes, A549 cells co-cultured with PBMC; assay type: cell-based, human; set-up: key to Aldoa mRNA level / Eno1 mRNA level / HK2 mRNA level / Glut1 mRNA level: relative mRNA level normalized to GAPDH (endogenous control)
Experimental: as §2

[7] = system: glycolytic genes in A549 KO HIF-1α cells; assay: RT-PCR of glycolytic genes, A549 KO HIF-1α cells co-cultured with PBMC; assay type: cell-based, human; conditions: A549 KO HIF-1α co-cultured with PBMC
Experimental: as §2

[8] = system: NAD+ content of A549 cells; assay: NAD+ content, A549 cells with or without PBMC; assay type: cell-based, human; set-up: unit not given here
Experimental: as §1

[9] = system: NAD+ content of A549 KO HIF-1α cells; assay: NAD+ content, A549 KO HIF-1α cells with or without PBMC; assay type: cell-based, human; set-up: unit not given here
Experimental: as §1

[10] = system: pyruvate content of A549 cells; assay: Pyruvate (PA) content, A549 cells with or without PBMC; assay type: cell-based, human; set-up: unit not given beside the values
Excerpt: Supplement 44321_2024_51_MOESM3_ESM.zip/Fig-2-K-PA.xlsx, sheet "Sheet1" | column: A549

[11] = system: pyruvate content of A549 KO HIF-1α cells; assay: Pyruvate (PA) content, A549 KO HIF-1α cells with or without PBMC; assay type: cell-based, human; set-up: unit not given beside the values
Excerpt: Supplement 44321_2024_51_MOESM3_ESM.zip/Fig-2-K-PA.xlsx, sheet "Sheet1" | column: A549 KO HIF-1α

[12] = system: LLC OE NAMPT/PD-L1 tumors; assay: LLC OE NAMPT/PD-L1 tumor-bearing C57BL/6 mice; assay type: in vivo, mouse; conditions: 20 mg/kg i.p.; 14 days; Fig 7B
[13] = system: IFN-γ and TNF-α in LLC OE NAMPT/PD-L1 tumor tissues; assay: ELISA of IFN-γ and TNF-α in tumor tissues of LLC OE NAMPT/PD-L1 mouse model; set-up: unit not given here; conditions: in vivo, tumor tissue, CQ-85 20 mg/kg
[14] = system: NAMPT expression in LLC OE NAMPT/PD-L1 tumors; assay: NAMPT protein expression in LLC constructed xenograft model; assay type: in vivo, mouse; conditions: CQ-85 20 mg/kg vs control group
[15] = system: NAD+ content of LLC OE NAMPT/PD-L1 tumor tissue; assay: NAD+ in tumor tissue, LLC OE NAMPT/PD-L1 mouse model; assay type: in vivo; conditions: 20 mg/kg; tumor tissue
A20 tumors = assay: A20 tumor-bearing Balb/c mice; assay type: in vivo, mouse; conditions: A20 model; FK866 20 mg/kg, LZFPN-90 20 and 40 mg/kg i.p.
[16] = system: PD-L1 expression in A2780 and LLC cells; assay: PD-L1 expression (western blot, flow cytometry, qRT-PCR) in A2780 and LLC cells; assay type: cell-based, human, mouse; conditions: 72 h
Experimental: For surface marker detection, tumor single-cell suspensions and spleen lymphocytes were incubated at 4 °C for 30 min in PBS with 0.1% Fixable Viability Dye (eBioscience 65-0863-14). Cells were washed and incubated in staining buffer (PBS with 1% FBS) with surface marker antibodies, the dilution ratio of all flow antibodies was 1:200 (BioLegend, CD3-APC 100235, CD3-PE 100205, CD4-FITC 100405, CD8-APC 100711, CD8-PE 100707, CD45-APC 103112, PD-L1-PE 124307, adsorbed secondary antibody-APC, and CD69-PE 104511). The cells were then washed and resuspended in staining buffer for flow cytometry. For cytokine detection, tumor single-cell suspensions and spleen lymphocytes were incubated in RPMI-1640 with 10% FBS and 0.2% Cell Stimulation Cocktail (plus protein transport inhibitors) (eBioscience 00-4975-93) at 37 °C for 12 h. […] Flow cytometry was performed on ACEA NovoCyte, and the data were analyzed using NovoExpress. […]
Total RNA was isolated using TRIzol reagent (Invitrogen, 15596026) according to the manufacturer’s protocol. […] Quantitative real-time PCR analysis was performed by mixing 10 μl SYBR, 0.4 μM forward primer, 0.4 μM reverse primer, 1 μl cDNA, and 8.2 μl distilled water per sample with Top Green qPCR SuperMix (Transgene, AQ601-04) by the manufacturer’s protocols. […]

## NC(=O)c1ccc[n+]([C@@H]2O[C@H](COP(=O)([O-])O)[C@@H](O)[C@H]2O)c1 [NMN, nicotinamide mononucleotide]
[1]; NMN 1 μM added to LZFPN-90 (NMN 0 μM values equal those of 5 nM LZFPN-90)
  Relative NAD+: 79.1005 and 77.5282
[1]; NMN 5 μM added to LZFPN-90
  Relative NAD+: 81.63 and 81.9669
[1]; NMN 10 μM added to LZFPN-90
  Relative NAD+: 85.5982 and 82.7424
[1]; NMN 20 μM added to LZFPN-90
  Relative NAD+: 92.0905 and 93.6414
[1]; NMN 40 μM added to LZFPN-90
  Relative NAD+: 91.3204 and 94.481

## COc1nc(OCc2cccc(-c3ccccc3)c2C)ccc1CNCCNC(C)=O [BMS202]
[2]; listed as B202
  IFN-γ (ELISA): 155.867 and 141.57 and 156.336
  TNF-α (ELISA): 199.656 and 157.29 and 212.022
[3]; +T Cells, listed as B202
  Eno1 mRNA level: 3.494 and 3.959 and 2.858
  HK2 mRNA level: 2.644 and 2.833 and 1.744
  Pfk1 mRNA level: 5.686 and 6.904
[3]; -T Cells, listed as B202
  Aldoa mRNA level: 0.06048 and 0.109 and 0.06804
  Eno1 mRNA level: 0.7778 and 1.3449 and 0.7359
  Glut1 mRNA level: 0.3392 and 0.2003 and 0.2483
  HK2 mRNA level: 1.261 and 1.177 and 0.9693
[4]; +T Cells, listed as B202
  content of pyruvate (PA): 0.5383 and 0.5346 and 0.5309
[4]; -T Cells, listed as B202
  content of pyruvate (PA): 0.3322 and 0.3345 and 0.3513
[5]; taken as +T cells by analogy with Fig 2G, listed as BM202
  content of NAD+: 6.047 and 6.219 and 6.464
[5]; taken as -T cells by analogy with Fig 2G, listed as BM202
  content of NAD+: 11.761 and 12.9475 and 11.7876
[6]; listed as B202
  Aldoa mRNA level: 1.286 and 1.53 and 1.628
  Eno1 mRNA level: 1.184 and 1.457 and 1.192
  Glut1 mRNA level: 1.195 and 1.4406 and 1.289
  HK2 mRNA level: 4.691 and 5.816 and 5.352
  Pfk1 mRNA level: 1.211 and 0.6057
[7]; listed as B202
  Aldoa mRNA level: 0.4841 and 0.4127 and 0.7087
  Eno1 mRNA level: 0.9159 and 1.082 and 0.8085
  HK2 mRNA level: 0.02498 and 0.01465 and 0.021
  Pfk1 mRNA level: 0.7631 and 0.9395 and 1
[8]; +PBMC, listed as BM202
  content of NAD+: 8.982 and 8.901 and 8.955
[8]; -PBMC, listed as BM202
  content of NAD+: 11.875 and 11.7227 and 11.9827
[9]; +PBMC, listed as BM202
  content of NAD+: 10.2853 and 11.0822 and 11.211
[9]; -PBMC, listed as BM202
  content of NAD+: 12.9598 and 12.8438 and 11.842
[10]; +PBMC, listed as BM202
  content of pyruvate (PA): 0.2451 and 0.2361 and 0.2328
[10]; -PBMC, listed as BM202
  content of pyruvate (PA): 0.1485 and 0.1357 and 0.1294
[11]; +PBMC, listed as BM202
  content of pyruvate (PA): 0.1117 and 0.1102 and 0.1239
[11]; -PBMC, listed as BM202
  content of pyruvate (PA): 0.09589 and 0.0979 and 0.1044

## O=C(c1ncc(CNC2CCOCC2)s1)N1CCc2c(-c3ccc4c(c3)OCCO4)cccc21 [CQ-85]
[12]
  TIR / tumor growth inhibition (TGI) rate at endpoint: 45.36%
[2]
  IFN-γ (ELISA): 156.023 and 118.367 and 126.961
  TNF-α (ELISA): 198.796 and 198.903 and 183.742
[13]
  IFN-γ (ELISA): 32.0391 and 39.4609 and 37.7422 and 48.3828
  TNF-α (ELISA): 49.9785 and 53.7419 and 61.1613 and 63.957
[3]; +T Cells
  Aldoa mRNA level: 3.122 and 3.144 and 2.933
  Eno1 mRNA level: 1.63 and 2.181 and 1.51
  HK2 mRNA level: 1.976 and 1.225 and 1.397
  Pfk1 mRNA level: 4.524 and 5.686 and 6.18
[3]; -T Cells
  Aldoa mRNA level: 0.1409 and 0.1113 and 0.07549
  Eno1 mRNA level: 1.412 and 1.0924 and 0.8165
  Glut1 mRNA level: 0.4601 and 0.3164 and 0.3635
  HK2 mRNA level: 1.925 and 1.641 and 1.032
[4]; +T Cells
  content of pyruvate (PA): 0.4897 and 0.4757 and 0.4584
[4]; -T Cells
  content of pyruvate (PA): 0.334 and 0.378 and 0.3588
[5]; taken as +T cells by analogy with Fig 2G
  content of NAD+: 6.631 and 6.489 and 6.614
[5]; taken as -T cells by analogy with Fig 2G
  content of NAD+: 10.4157 and 11.1416 and 12.0617
[6]
  Aldoa mRNA level: 0.8847 and 0.8971 and 0.9885
  Eno1 mRNA level: 1.112 and 1.398 and 1.35
  Glut1 mRNA level: 2.253 and 2.993 and 2.146
  HK2 mRNA level: 5.011 and 5.445 and 5.877
  Pfk1 mRNA level: 1.666 and 1.544 and 1.005
[7]
  Aldoa mRNA level: 0.8971 and 0.8909 and 1.1434
  Eno1 mRNA level: 0.7363 and 0.9515 and 0.8284
  Pfk1 mRNA level: 0.9428 and 1.091 and 0.7397
[8]; +PBMC
  content of NAD+: 9.197 and 8.685 and 8.9355
[8]; -PBMC
  content of NAD+: 11.8739 and 12.9843 and 12.9544
[9]; +PBMC
  content of NAD+: 10.9402 and 9.994 and 10.0633
[9]; -PBMC
  content of NAD+: 11.853 and 11.7415 and 11.8655
[10]; +PBMC
  content of pyruvate (PA): 0.2271 and 0.2241 and 0.2316
[10]; -PBMC
  content of pyruvate (PA): 0.1159 and 0.1109 and 0.1297
[11]; +PBMC
  content of pyruvate (PA): 0.1029 and 0.09765 and 0.1064
[11]; -PBMC
  content of pyruvate (PA): 0.08688 and 0.08738 and 0.09664
[14]
  effect on NAMPT protein expression: upregulate the protein expression of NAMPT

## O=C(/C=C/c1cccnc1)NCCCCC1CCN(C(=O)c2ccccc2)CC1 [FK866, reference compound]
[15]
  NAD+ in 20 mg tissue: 98.7342 and 119.831 and 110.802
A20 tumors
  effect on mouse organ or body weight: caused a reduction in the body weight of the mice
[12]
  TIR / tumor growth inhibition (TGI) rate at endpoint: 43.62%
[16]
  effect on PD-L1 expression: upregulated global and membrane PD-L1 expression

## CC(NC(=O)c1ccccc1/N=C/c1c(O)ccc2ccccc12)c1ccccc1 (centres unmarked) [Sirtinol]
[16]
  effect on PD-L1 expression: PD-L1 was upregulated at both the mRNA and protein levels
